Reference: article PMC3395435 (Biopolymers, 2012)

How the values were obtained:
[1] = test system: rat vas deferens; settings: cited from earlier work
[2] = type: physicochemical; settings: pH 7.5
[3] = test system: Swiss Webster mice; settings: mouse, in vivo
[4] = test system: Swiss Webster mice; settings: mouse, in vivo; cited from earlier work

For ω-conotoxin GVIA, the “Biological activity (twitch responses)” value [1] is given as 10 nM, the “natively folded peptide retained at the steady state” value [2] is given as “about 60%” and the “duration of shaking syndrome” value [3] is given as “maintained for a long time”. The “shaking syndrome (persistent body tremor)” value [3] was “exhibited the shaking syndrome”, the “duration of shaking syndrome, previous work” value [4] was “maintained for a long time in a dose-dependent manner” and the “shaking syndrome, previous work” value [4] was “induce shaking syndrome in mice”.
